# ChEMBL document CHEMBL1147701, “Novel 4-anilinoquinazolines with C-6 carbon-linked side chains: synthesis and structure-activity relationship of a series of potent, orally active, EGF receptor tyrosine kinase inhibitors” (Bioorg Med Chem Lett, 2006)
# Assays:
# [1] = Apparent permeability from apical to basolateral side of the Caco-2 cell; assay type: ADME, cell-based; conditions: human, read-out: permeability
# [2] = target: c-Jun N-terminal kinase, JNK (Homo sapiens, UniProt P45983+P53779+P45984); assay: Inhibition of JNK; assay type: protein assay
# [3] = target: Tyrosine-protein kinase Lck (Homo sapiens, UniProt P06239)
# Tyrosine-protein kinase Lck, sequence (P06239 whole entry): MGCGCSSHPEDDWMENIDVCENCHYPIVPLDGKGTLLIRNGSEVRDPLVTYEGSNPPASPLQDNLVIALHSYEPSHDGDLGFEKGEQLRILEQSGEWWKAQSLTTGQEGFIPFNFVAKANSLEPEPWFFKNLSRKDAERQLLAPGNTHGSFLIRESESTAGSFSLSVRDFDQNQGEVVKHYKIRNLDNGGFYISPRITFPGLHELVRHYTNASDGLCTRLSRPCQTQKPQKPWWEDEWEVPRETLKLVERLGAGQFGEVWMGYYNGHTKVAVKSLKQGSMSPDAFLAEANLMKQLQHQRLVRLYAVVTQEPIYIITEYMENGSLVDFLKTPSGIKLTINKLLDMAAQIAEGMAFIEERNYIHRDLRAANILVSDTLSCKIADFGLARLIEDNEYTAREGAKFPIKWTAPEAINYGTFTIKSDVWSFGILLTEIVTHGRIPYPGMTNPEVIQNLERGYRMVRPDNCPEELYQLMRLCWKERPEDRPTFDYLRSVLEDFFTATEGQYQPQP
# [4] = target: Rho-associated protein kinase 2 (Homo sapiens, UniProt O75116); assay: Inhibition of ROCK2
# Rho-associated protein kinase 2, sequence (O75116 whole entry): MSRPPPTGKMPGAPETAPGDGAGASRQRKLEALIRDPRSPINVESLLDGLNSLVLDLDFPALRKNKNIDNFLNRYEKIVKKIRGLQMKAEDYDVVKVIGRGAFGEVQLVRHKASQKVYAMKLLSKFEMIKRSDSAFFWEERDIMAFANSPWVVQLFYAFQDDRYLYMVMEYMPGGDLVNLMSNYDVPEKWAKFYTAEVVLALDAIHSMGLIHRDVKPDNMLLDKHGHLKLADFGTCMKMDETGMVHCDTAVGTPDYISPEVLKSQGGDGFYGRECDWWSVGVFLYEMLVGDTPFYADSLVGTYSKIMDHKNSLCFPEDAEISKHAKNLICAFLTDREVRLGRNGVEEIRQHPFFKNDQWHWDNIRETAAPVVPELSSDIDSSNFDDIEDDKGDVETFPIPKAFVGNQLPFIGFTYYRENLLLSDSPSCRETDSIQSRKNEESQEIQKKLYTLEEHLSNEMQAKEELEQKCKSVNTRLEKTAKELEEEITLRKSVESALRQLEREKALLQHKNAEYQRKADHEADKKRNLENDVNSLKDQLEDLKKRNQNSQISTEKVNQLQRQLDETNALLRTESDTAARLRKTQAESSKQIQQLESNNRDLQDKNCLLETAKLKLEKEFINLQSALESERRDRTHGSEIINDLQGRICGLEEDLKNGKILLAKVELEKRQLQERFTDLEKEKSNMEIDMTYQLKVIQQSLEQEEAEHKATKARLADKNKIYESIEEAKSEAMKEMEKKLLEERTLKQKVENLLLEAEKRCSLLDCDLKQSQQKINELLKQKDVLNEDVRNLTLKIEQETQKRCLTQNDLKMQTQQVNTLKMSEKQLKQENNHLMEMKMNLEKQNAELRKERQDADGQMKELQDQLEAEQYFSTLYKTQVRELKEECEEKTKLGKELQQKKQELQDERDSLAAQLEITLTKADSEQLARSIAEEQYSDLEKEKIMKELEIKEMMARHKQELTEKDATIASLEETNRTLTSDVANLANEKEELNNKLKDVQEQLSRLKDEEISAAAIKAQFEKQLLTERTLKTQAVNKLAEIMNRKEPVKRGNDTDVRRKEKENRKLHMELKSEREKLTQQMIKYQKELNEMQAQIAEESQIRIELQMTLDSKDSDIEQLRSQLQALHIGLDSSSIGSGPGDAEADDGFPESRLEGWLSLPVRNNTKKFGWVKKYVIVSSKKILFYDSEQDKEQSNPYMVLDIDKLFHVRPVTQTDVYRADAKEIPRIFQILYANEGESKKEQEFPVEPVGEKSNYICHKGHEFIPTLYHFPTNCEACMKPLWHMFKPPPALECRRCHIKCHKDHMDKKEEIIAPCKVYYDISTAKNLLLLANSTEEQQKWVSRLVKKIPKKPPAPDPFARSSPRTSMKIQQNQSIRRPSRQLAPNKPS
# [5] = target: Glycogen synthase kinase-3 beta (Homo sapiens, UniProt P49841); assay: Inhibition of GSK3-beta
# Glycogen synthase kinase-3 beta, sequence (P49841 whole entry): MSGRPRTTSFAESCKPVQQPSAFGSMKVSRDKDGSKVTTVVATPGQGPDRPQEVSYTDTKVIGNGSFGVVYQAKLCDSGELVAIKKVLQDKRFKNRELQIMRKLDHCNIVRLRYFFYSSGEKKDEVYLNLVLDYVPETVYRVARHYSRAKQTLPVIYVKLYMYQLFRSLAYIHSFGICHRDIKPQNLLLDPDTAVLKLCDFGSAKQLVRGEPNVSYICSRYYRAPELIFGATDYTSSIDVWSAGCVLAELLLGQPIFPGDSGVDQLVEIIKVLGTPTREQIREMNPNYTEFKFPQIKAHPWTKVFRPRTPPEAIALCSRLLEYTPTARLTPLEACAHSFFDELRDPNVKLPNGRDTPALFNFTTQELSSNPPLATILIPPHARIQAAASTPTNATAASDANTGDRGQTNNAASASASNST
# [6] = Volume of distribution in dog at 2 mg/kg, po and 1 mg/kg, iv; assay type: ADME, organism-based, Canis lupus familiaris; conditions: in vivo, read-out: Vdss
# [7] = Half life in rat at 5 mg/kg, po and 2 mg/kg, iv; assay type: ADME, organism-based; conditions: in vivo
# [8] = Inhibition of CDK
# [9] = test system: LoVo; assay: Antitumor activity against human LoVo cell line xenografted in athymic mouse at 50 mg/kg/day after 13 days; assay type: functional; conditions: 312 h
# [10] = Percent of unbound drug in human plasma; assay type: ADME, organism-based
# [11] = Clearance in rat at 5 mg/kg, po and 2 mg/kg, iv; assay type: ADME, organism-based; conditions: in vivo
# [12] = target: MAP kinase p38 (Homo sapiens, UniProt O15264+Q15759+Q16539+P53778)
# [13] = Bioavailability in dog at 2 mg/kg, po and 1 mg/kg, iv; assay type: ADME, organism-based, Canis lupus familiaris; conditions: in vivo
# [14] = Bioavailability in rat at 5 mg/kg, po and 2 mg/kg, iv; assay type: ADME, organism-based; conditions: in vivo
# [15] = Percent of unbound drug in rat plasma; assay type: ADME, organism-based
# [16] = target: T1, Serine/threonine-protein kinase Sgk1 (Homo sapiens, UniProt O00141); assay: Inhibition of SGK
# T1 sequence (O00141 whole entry): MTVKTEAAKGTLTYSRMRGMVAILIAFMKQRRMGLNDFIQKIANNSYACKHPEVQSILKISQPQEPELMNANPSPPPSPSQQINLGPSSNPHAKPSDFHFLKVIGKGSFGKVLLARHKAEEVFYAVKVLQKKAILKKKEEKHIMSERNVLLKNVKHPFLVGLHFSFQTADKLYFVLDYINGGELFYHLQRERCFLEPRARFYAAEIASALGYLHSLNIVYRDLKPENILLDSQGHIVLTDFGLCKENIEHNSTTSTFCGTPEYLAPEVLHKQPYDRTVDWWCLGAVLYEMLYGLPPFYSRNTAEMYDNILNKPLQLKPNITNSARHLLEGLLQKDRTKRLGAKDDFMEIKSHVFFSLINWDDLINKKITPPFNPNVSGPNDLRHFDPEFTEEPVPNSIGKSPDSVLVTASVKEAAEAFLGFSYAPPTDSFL
# [17] = Clearance in dog at 2 mg/kg, po and 1 mg/kg, iv; assay type: ADME, organism-based, Canis lupus familiaris; conditions: in vivo
# [18] = target: AMP-activated protein kinase, AMPK; assay: Inhibition of AMPK; assay type: protein-complex assay
# [19] = Solubility in phosphate buffer at pH 7.4; assay type: physicochemical
# [20] = target: Mitogen-activated protein kinase 1 (Homo sapiens, UniProt P28482); assay: Inhibition of MAPK
# Mitogen-activated protein kinase 1, sequence (P28482 whole entry): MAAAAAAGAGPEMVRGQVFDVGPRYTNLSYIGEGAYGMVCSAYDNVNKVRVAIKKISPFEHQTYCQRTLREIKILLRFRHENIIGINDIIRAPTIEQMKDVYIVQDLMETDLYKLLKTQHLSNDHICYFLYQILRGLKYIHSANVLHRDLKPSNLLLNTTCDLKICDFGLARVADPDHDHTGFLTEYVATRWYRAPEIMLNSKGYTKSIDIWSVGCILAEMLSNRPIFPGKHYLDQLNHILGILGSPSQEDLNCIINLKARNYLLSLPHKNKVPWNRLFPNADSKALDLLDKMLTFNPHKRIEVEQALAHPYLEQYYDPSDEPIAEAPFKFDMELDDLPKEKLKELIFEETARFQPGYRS
# [21] = Volume of distribution in rat at 5 mg/kg, po and 2 mg/kg, iv; assay type: ADME, organism-based; conditions: in vivo, read-out: Vdss
# [22] = target: Vascular endothelial growth factor receptor 2 (Homo sapiens, UniProt P35968)
# Vascular endothelial growth factor receptor 2, sequence (P35968 whole entry): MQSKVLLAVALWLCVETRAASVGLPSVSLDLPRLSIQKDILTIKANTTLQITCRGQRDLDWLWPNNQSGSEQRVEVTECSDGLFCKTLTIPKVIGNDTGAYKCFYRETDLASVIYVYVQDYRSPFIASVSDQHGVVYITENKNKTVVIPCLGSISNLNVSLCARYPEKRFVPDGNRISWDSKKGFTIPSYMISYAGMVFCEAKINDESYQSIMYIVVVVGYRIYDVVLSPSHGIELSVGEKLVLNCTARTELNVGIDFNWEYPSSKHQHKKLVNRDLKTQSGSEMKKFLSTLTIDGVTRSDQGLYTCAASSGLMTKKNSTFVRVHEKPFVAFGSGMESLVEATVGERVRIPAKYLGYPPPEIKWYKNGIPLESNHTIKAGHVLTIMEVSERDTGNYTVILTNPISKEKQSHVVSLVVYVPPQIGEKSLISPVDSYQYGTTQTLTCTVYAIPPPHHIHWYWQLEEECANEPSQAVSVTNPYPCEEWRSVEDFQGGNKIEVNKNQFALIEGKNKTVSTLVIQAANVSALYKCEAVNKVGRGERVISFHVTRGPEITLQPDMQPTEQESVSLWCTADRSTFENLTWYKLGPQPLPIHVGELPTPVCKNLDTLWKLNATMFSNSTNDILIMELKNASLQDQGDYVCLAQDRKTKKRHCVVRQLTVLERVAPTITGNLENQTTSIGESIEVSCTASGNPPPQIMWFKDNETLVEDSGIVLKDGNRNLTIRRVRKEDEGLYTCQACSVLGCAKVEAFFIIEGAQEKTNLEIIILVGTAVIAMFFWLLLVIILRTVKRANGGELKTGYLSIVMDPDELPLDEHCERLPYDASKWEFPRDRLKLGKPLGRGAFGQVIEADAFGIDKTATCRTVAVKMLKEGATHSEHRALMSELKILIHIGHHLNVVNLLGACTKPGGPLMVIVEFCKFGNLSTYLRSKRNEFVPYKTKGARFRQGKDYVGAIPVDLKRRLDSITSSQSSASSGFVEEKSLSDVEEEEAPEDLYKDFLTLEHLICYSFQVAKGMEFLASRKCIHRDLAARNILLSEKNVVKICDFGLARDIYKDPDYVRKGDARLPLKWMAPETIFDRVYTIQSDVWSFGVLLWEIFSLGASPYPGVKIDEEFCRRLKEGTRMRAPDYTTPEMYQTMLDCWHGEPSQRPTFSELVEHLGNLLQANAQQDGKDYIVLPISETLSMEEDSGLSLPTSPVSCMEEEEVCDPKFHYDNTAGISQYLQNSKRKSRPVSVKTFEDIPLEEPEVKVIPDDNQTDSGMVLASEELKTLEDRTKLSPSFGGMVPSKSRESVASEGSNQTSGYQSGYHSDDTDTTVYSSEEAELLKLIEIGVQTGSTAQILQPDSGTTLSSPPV
# [23] = target: T2, Serine/threonine-protein kinase Chk1 (Homo sapiens, UniProt O14757); assay: Inhibition of CHK1
# T2 sequence (O14757 whole entry): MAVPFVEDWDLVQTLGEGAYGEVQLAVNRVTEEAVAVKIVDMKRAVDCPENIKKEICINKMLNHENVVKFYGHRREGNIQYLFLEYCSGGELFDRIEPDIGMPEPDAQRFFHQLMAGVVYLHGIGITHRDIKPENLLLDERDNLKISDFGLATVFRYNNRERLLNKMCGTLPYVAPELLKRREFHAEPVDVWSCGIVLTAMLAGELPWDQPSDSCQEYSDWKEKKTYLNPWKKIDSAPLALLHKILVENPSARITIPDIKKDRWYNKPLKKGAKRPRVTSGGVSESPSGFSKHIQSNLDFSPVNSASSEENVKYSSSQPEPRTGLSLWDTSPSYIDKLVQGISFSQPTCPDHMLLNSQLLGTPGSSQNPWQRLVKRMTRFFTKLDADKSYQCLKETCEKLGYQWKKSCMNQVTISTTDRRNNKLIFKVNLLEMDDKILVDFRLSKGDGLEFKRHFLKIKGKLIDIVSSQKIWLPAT
# [24] = target: Proto-oncogene tyrosine-protein kinase Src (Homo sapiens, UniProt P12931); assay: Inhibition of Src
# Proto-oncogene tyrosine-protein kinase Src, sequence (P12931 2-536 limits assumed): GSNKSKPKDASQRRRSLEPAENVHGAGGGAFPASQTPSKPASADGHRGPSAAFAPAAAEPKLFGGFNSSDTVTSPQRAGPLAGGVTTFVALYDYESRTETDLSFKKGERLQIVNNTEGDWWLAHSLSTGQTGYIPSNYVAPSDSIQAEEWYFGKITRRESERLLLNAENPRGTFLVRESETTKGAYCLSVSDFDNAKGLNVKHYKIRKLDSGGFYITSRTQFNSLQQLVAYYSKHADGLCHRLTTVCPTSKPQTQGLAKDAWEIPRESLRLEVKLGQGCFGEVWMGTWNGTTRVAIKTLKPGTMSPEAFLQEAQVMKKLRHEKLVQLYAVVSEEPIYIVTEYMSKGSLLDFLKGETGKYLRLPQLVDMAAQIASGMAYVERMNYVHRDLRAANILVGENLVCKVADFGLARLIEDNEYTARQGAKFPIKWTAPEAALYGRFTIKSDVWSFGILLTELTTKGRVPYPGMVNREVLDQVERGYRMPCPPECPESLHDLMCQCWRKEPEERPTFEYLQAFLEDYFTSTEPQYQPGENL
# [25] = Percent of unbound drug in dog plasma; assay type: ADME, organism-based, Canis lupus familiaris
# [26] = Distribution coefficient, logD of the compound; assay type: physicochemical; conditions: octanol/water
# [27] = Inhibition of P450; assay type: ADME
# [28] = target: cAMP-dependent protein kinase (PKA) (Homo sapiens, UniProt P22694+P17612+P22612); assay: Inhibition of PKA; assay type: protein assay
# [29] = Half life in dog at 2 mg/kg, po and 1 mg/kg, iv; assay type: ADME, organism-based, Canis lupus familiaris; conditions: in vivo
# [30] = Dissociation constant, pKa of the compound; assay type: physicochemical
# [31] = test system: LoVo; assay: Antitumor activity against human LoVo cell line xenografted in athymic mouse at 25 mg/kg/day after 18 days; assay type: functional; conditions: 432 h
Papp A→B [1] [×10⁻⁶ cm/s],IC50 [2] [µM],IC50 [3] [µM],IC50 [4] [µM],IC50 [5] [µM],half-life [7] [h],IC50 [8] [µM],fraction unbound [10],clearance [11] [mL/min/kg],bioavailability [14] [%],fraction unbound [15],IC50 [16] [µM],IC50 [18] [µM],solubility [19] [µM],IC50 [20] [µM],Vd [21] [L/kg],IC50 [22] [µM],IC50 [23] [µM],IC50 [24] [µM],fraction unbound [25],Compound,also measured
> 13,> 10,> 10,> 10,> 10,4.8,> 10,0.05,12,75,0.065,> 10,> 10,40,> 10,0.8,> 10,> 10,> 10,0.01,COc1cc2ncnc(Nc3cccc(Cl)c3F)c2cc1CN(C)[C@@H](C)C(N)=O,Vd [6]: 0.4 L/kg; inhibition in vivo at 50 mg/kg/day [9]: 60%; IC50 [12]: > 10 µM; bioavailability [13]: 63%; clearance [17]: 14 mL/min/kg; logD [26]: 3.4; IC50 [27]: > 10 µM; IC50 [28]: > 10 µM; half-life [29]: 0.4 h
> 13,> 10,> 10,> 10,> 10,4.3,> 10,0.05,6,58,0.06,> 10,> 10,40,> 10,0.6,> 10,> 10,> 10,0.01,COc1cc2ncnc(Nc3cccc(Cl)c3F)c2cc1CN(C)[C@H](C)C(N)=O,IC50 [12]: > 10 µM; pKa [30]: 6.8; inhibition in vivo at 25 mg/kg/day [31]: 37%; logD [26]: 3.4; IC50 [27]: > 10 µM; IC50 [28]: > 10 µM
> 13,> 10,> 10,> 10,> 10,6.6,> 10,0.05,3,111,0.037,> 10,> 10,260,> 10,0.7,> 10,> 10,> 10,0.01,COc1cc2ncnc(Nc3cccc(Cl)c3F)c2cc1CN1CCC[C@H]1C(N)=O,Vd [6]: 0.4 L/kg; bioavailability [13]: 88%; clearance [17]: 5 mL/min/kg; inhibition in vivo at 25 mg/kg/day [31]: 43%; logD [26]: 3.6; IC50 [27]: > 10 µM; IC50 [28]: > 10 µM; half-life [29]: 0.7 h
